Columns and labels:
[1] = test system: CRPC cell lines (LnCaP, C4-2, C4-2AR-WT, C4-2AR-F876L, DU-145); assay: CRPC cell proliferation assay, summary over the cell lines; type: cell-based
Protocol: Castrate-Resistant Prostate Cancer (CRPC) Cell Proliferation Assay • Cells were seeded into 96-well plates at 2,000-10,000 cells/well in 100 uL medium. Four AR(+) cell lines (LnCaP, C4-2 (parental), C4-2AR-WT and C4-2AR—F876L) and one AR(−) cell line (DU-145) were studied. Compound treated cells were analyzed for cell density at 96h, using CellTiter-Glo® (CTG) reagent (Promega). […] Example 10 and IBET-151 BET had submicromolar IC50 values in the AR(+) cell lines. The inhibitors maintained potency in C4-2 cells engineered to express wild type (WT) AR receptor (C4-2-AR-WT), as well as cells engineered to express the F876L mutation (C4-2-AR-F876L) that confers resistance to androgen receptor (AR) antagonists.

LnCaP cells, AR(+) = assay: CRPC cell proliferation assay (CellTiter-Glo), LnCaP; type: cell-based; conditions: CTG at 96h; for IC50: Homo sapiens
Protocol: (§1) Castrate-Resistant Prostate Cancer (CRPC) Cell Proliferation Assay • Cells were seeded into 96-well plates at 2,000-10,000 cells/well in 100 uL medium. Four AR(+) cell lines (LnCaP, C4-2 (parental), C4-2AR-WT and C4-2AR—F876L) and one AR(−) cell line (DU-145) were studied. Compound treated cells were analyzed for cell density at 96h, using CellTiter-Glo® (CTG) reagent (Promega).

C4-2AR-WT cells, AR(+) = assay: CRPC cell proliferation assay (CellTiter-Glo), C4-2AR-WT; type: cell-based; conditions: CTG at 96h
Protocol: as §1

DU-145 cells, AR(−) = assay: CRPC cell proliferation assay (CellTiter-Glo), DU-145; type: cell-based; conditions: CTG at 96h; for IC50: Homo sapiens
Protocol: as §1

[2] = test system: C4-2 (parental) cells, AR(+); assay: CRPC cell proliferation assay (CellTiter-Glo), C4-2; type: cell-based; conditions: CTG at 96h
Protocol: as §1

[3] = test system: C4-2AR-F876L cells, AR(+); assay: CRPC cell proliferation assay (CellTiter-Glo), C4-2AR-F876L; type: cell-based; conditions: CTG at 96h
Protocol: as §1

OPM-2 cells = assay: OPM-2 cell proliferation assay (CellTiter-Glo); type: cell-based; conditions: for IC50: OPM-2, CTG at 72h; for inhibition of proliferation of OPM-2 cells: dose dependent manner, FIG. 1.B
Protocol: (§2) MM1.S (dexamethasone sensitive) and OPM-2 cells were purchased from ATCC and maintained in RPMI-1640 medium with 10% fetal bovine serum at 37 degrees, 5% CO2. Cells were seeded at 10,000 cells/well in 100 uL medium. The following day compounds or control vehicle (DMSO) were added at indicated concentrations in 10 ul volume. Compound treated OPM-2 cells and MM1.S cell were analyzed for cell density at 72h and 96h, respectively, using CellTiter-Glo® (CTG) reagent (Promega). The CTG assay measures the amount of ATP present, which indicates the number of viable cells in culture.

[4] = test system: LPS-induced IL-6 production in human whole blood; assay: IL-6 human whole blood (HWB) assay, LPS-stimulated, HTRF detection; type: cell-based; conditions: 1 ng/ml LPS, 4 hours
BRD4 BD1 = molecular target: T1, BRD4 BD1 (Homo sapiens, UniProt O60885); assay: BRD4 BD1 Fluorescence Polarization (FP) competition binding assay; conditions: BRD4 BD1 40 nM, probe PFI-411FP 2 nM
T1 construct: His-tagged BRD4 BD1 (44-160); made in house
How it was run: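 BRD4 BD1 (40 nM) preincubated 15 min at 20° C. with compound (120 to 0.0012 μM) in HEPES pH 7.4 with 0.08% BSA, then 2 nM PFI-411FP tracer added for 60 min. Fluorescence polarization read (ex 620/em 688 nm); IC50 from four-parameter fit, converted to Ki via Nikolovska-Coleska equation.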

MM1.S cells = assay: MM1.S cell proliferation assay (CellTiter-Glo); type: cell-based; conditions: for IC50: MM1.S, CTG at 96h; for inhibition of proliferation of MM1.S cells: dose dependent manner, FIG. 1.A
Protocol: as §2

[5] = test system: MYC, SOX2, involucrin and Keratin 14 expression in HCC2429 cells; assay: Biomarker analysis in HCC2429 cells (RT-PCR, Western blot); type: cell-based; conditions: for mRNA expression of involucrin: HCC2429, RT-PCR, 72 hours, 50 nM, 200 nM and 500 nM, dose dependent; for MYC protein level / SOX2 protein level: HCC2429, Western blot, 72 hrs, concentration-dependent
Protocol: HCC2429 cells were plated into a 6-well plate (250,000 cells/well). Cells were treated with compounds or control vehicle (DMSO) at the indicated concentrations for 72 hrs. Cells were collected, washed in PBS, and split for western blot and RNA analysis.

HCC2429 cells = assay: NMC HCC2429 cell proliferation assay (CellTiter-Glo); type: cell-based; conditions: HCC2429, CTG at 96h
Protocol: NMC HCC2429 Cell Proliferation Assay • HCC2429 cells were plated into a 96-well plate (10,000 cells/well). Compounds or control vehicle (DMSO) were added at indicated concentrations. Compound-treated HCC2429 cells were analyzed for cell density at 96h using CellTiter-Glo® (CTG) reagent (Promega).

Row | IC50 (MM1.S cells; Homo sapiens) [nM] | SMILES | Max % Inh (LnCaP cells, AR(+)) [%] | IC50 (LnCaP cells, AR(+)) [nM] | IC50 (C4-2AR-WT cells, AR(+)) [nM] | Max % Inh (C4-2AR-WT cells, AR(+)) [%] | Max % Inh (DU-145 cells, AR(−)) [%] | IC50 (DU-145 cells, AR(−)) [nM] | IC50 [2] [nM] | Max % Inh [2] [%] | IC50 [3] [nM] | Max % Inh [3] [%] | IC50 (OPM-2 cells; Homo sapiens) [nM] | inhibition of proliferation of OPM-2 cells (OPM-2 cells) | inhibition of proliferation of MM1.S cells (MM1.S cells) | mRNA expression of involucrin [5] | MYC protein level [5] | SOX2 protein level [5] | IC50 (OPM-2 cells) [nM] | IC50 (MM1.S cells) [nM] | also measured
1 | – | COc1cc2c(cc1-c1c(C)noc1C)ncc1[nH]c(=O)n([C@H](C)c3ccccn3)c12 [i-BET151, reference compound] | 78 | 400 | 430 | 92 | 74 | 1130 | 490 | 90 | 470 | 90 | – | – | – | – | – | – | – | – | IC50 values in the AR(+) cell lines ([1]; AR(+) cell lines, CTG at 96h): submicromolar
2 | 39 | CC[C@H](COC)n1c(=O)c(NCCC(=O)O)nc2ccc(-c3c(C)noc3C)nc21 [Example 47, N-{6-(3,5-dimethyl-1,2-oxazol-4-yl)-4-[(2R)-1-methoxybutan-2-yl]-3-oxo-3,4-dihydropyrido[2,3-b]pyrazin-2-yl}-beta-alanine] | 62 | > 5000 | > 5000 | 82 | 43 | > 5000 | > 5000 | 80 | > 5000 | 81 | 160 | inhibited proliferation | inhibited proliferation | – | – | – | – | – | IC50 [4]: 6160 nM; IC50 (BRD4 BD1): 194 nM
3 | 12 | CCNC(=O)C[C@@H]1N=C(c2ccc(Cl)cc2)c2cc(OC)ccc2-n2c(C)nnc21 [IBET-762] | – | – | – | – | – | – | – | – | – | – | 30 | inhibited proliferation | inhibited proliferation | increased | down-regulated | down-regulated | – | – | IC50 (HCC2429 cells; Homo sapiens): 85 nM
4 | – | CNC(=O)c1ccc(N2C(=S)N(c3ccc(C#N)c(C(F)(F)F)c3)C(=O)C2(C)C)cc1F [MDV3100, reference compound] | 43 | – | – | 39 | 23 | – | – | 33 | – | 44 | – | – | – | – | – | – | – | – | activity on cell proliferation ([1]; short-term assay, compared with the BET inhibitors): weaker activity
5 | – | Cc1sc2c(c1C)C(c1ccc(Cl)cc1)=N[C@@H](CC(=O)OC(C)(C)C)c1nnc(C)n1-2 [JQ1(−)] | – | – | – | – | – | – | – | – | – | – | – | – | – | – | – | – | > 1000 | > 1000 | –
6 | – | Cc1sc2c(c1C)C(c1ccc(Cl)cc1)=N[C@@H](CC(=O)OC(C)(C)C)c1nnc(C)n1-2 [JQ1(+)] | – | – | – | – | – | – | – | – | – | – | – | inhibited proliferation | inhibited proliferation | increased | down-regulated | down-regulated | 9 | 11 | IC50 (HCC2429 cells): 44 nM

From patent US20160368919A1, “NOVEL PYRIDINE PYRAZINONES AS BET-FAMILY BROMODOMAIN INHIBITORS” (Pfizer Inc., priority 2015, published 2016)
